Data on seven molecules can be found in patent US20220356525A1, “METHODS OF DETERMINING WHETHER PATIENTS SUFFERING FROM ACUTE MYELOID LEUKEMIA WILL ACHIEVE A RESPONSE TO AN MYC-TARGETING THERAPY” (INSERM (INSTITUT NATIONAL DE LA SANTÉ ET DE LA RECHERCHE …, priority 2019, published 2022).

The test system of data set [1] is MLL-translocated primary patient samples with AML. As to the kind of experiment: OTX015 sensitivity of primary AML patient samples. In kind it is cell-based, human. As to conditions: 50 μM 5-CH3 THF; three patient samples with altered MTHFR genotype. The procedure:
(§1) Error bars represent mean±SD.
(§2) To investigate further the relationship between folic acid starvation and increased BET inhibitor resistance, we compiled a panel of AML cell lines harboring diverse genetic alterations. […] The effect of folic acid removal was also evaluated in cell lines treated either with a second BET inhibitor, JQ1, or with THZ-1, a covalent inhibitor of CDK7, another key factor in transcriptional elongation at super-enhancer regions and a strong inhibitor of MYC expression (data not shown). […] Therefore, we studied selective suppression of BRD4 by short hairpin RNA (shRNA) in two AML cell lines.
Previous studies have extensively characterized two common MTHFR genetic variants, C677T and A1298C, encoding MTHFR enzyme variants with reduced activity, resulting in hyperhomocysteinemia in human carriers. In particular, the homozygous variant 677 TT and 1298 CC genotypes are present in ˜10% of Caucasians and display only 30% and 60% of the homozygous wild-type 677 CC and 1298 AA enzyme activities, respectively (16, 17). […] Five KG1a clones either 1) wild-type 677 CC and 1298 AA, 2) heterozygous 677 CT or 1298 AC, or 3) homozygous 677 TT or 1298 CC, were selected and genotyped via allelic discrimination technique (FIG. 1A). […] Finally, we engineered a tractable MLL-AF9-driven mouse model of AML in which Mtfhr genotype status was either homozygous wild-type, heterozygous or homozygous knockout.

Data set [2] deals with CRISPR/Cas9-edited KG1a clones. As to the kind of experiment: OTX015 sensitivity and colony formation of CRISPR/Cas9-edited KG1a clones with MTHFR variants. It counts as cell-based, human. As to conditions: 50 μM 5-CH3 THF; 677 TT or 1298 CC clones versus wild-type.
Description: Error bars represent mean±SD. Experiment performed at least two independent times.
as §1
Additional information is provided in the supplementary material and methods section.
Finally, we engineered a tractable MLL-AF9-driven mouse model of AML in which Mtfhr genotype status was either homozygous wild-type, heterozygous or homozygous knockout.

Data set [3] has as its system IMS-M2 and U937 cells. As to conditions: 50 μM 5-CH3 THF; MTHFR-directed shRNAs.
Data set [4] relates to OCI-AML2 cells. As to the kind of experiment: Pooled CRISPR/Cas9 epigenetic screen with JQ1. It counts as cell-based, human. The procedure:
OCI-AML2 cells were seeded into six-well plates at a density of 3×10^6 cells per well and transduced at MOI 0.2. […] 24 hours post-transduction, cells were replated into puromycin-containing media. A sample was collected at 48 hours post-puromycin to confirm library coverage in the transduced population. Transduced cells were expanded in puromycin for 10 days before drug, when the transduced population was split into vehicle (DMSO) and JQ1 conditions and maintained for two weeks. Deep sequencing was performed by Hudson Alpha Institute for Biotechnology on an Illumina Nextseq platform (75 bp, single-ended) to identify differences in library composition. Additional information is provided in the supplementary material and methods section.

The target of data set [5] is BRD4 (Homo sapiens, UniProt O60885). The following applies: previous studies; cited from earlier work.
Data set [6] concerns MLL-AF9-driven AML cells. As to the kind of experiment: MLL-AF9-driven AML mouse models treated with JQ1. It counts as in vivo, mice. The procedure: (E) MLL-AF9-transformed GFP-positive granulomonocytic progenitors (Sca-1^−/c-KIT^+/CD16/32^+/CD34^+/MPO^+) from homozygous wild-type […], or heterozygous (+/−) and homozygous (−/−) Mthfr knockout mice transplanted into sublethally-irradiated recipient mice before treatment with vehicle or 50 mg/kg JQ1 for 7 days. Proportion of GFP-positive MLL-AF9 leukemic cells in bone marrow from five mice per group. p-value by Mann-Whitney test. n.s, nonsignificant (p>0.05). Error bars represent mean±SD.
The French National Committee on Animal Care reviewed and approved all mouse experiments. Sample size was influenced by historical penetrance and consistency of MLL-AF9-driven in vivo models. For the Mthfr knockout AML mouse model, BALB/cJ mice were purchased from Charles River Laboratories. Each recipient mouse was transplanted with transduced Scal^−/c-Kit^+ myeloid progenitors sorted from the total bone marrow of three donor mice. Approximatively two months post-transplantation, sick mice were euthanized and bone marrow harvested before flow-based sorting of MLL-AF9-positive granulo-monocytic bone marrow progenitor population (GFP^+/Sca-1^−/c-Kit^+/Cd16/32^+/Cd34^+) and PCR-based confirmation of Mthfr knockout status. 0.2×10^6 MLL-AF9-positive Mthfr^+/+, Mthfr^+/−, and Mthfr^−/− cells were then reinjected into sublethally-irradiated secondary recipient mice treated daily by intraperitoneal injection with 50 mg/kg JQ1 (10% DMSO+90% G5W).
For folate starvation experiments, 5-week old male C57BL/6J mice were given regular or folate-deficient casein-reconstituted diet (Safe-Diets) for 4 weeks before sublethal irradiation (350cGy) and injection with 0.2×10^6 MLL-AF9-positive L-GMP cells before treatment with 35 mg/kg or 50 mg/kg JQ1 (10% DMSO+90% G5W) for 7 days. For Mthfr knockdown experiments, MLL-AF9-positive L-GMP cells were infected with a control or two Mthfr-directed shRNAs cloned into an MSCV-miRE-SV40-eBFP vector modified from the MSCV-miRE_shBRD9_561-SV40-GFP vector (Addgene, #75139) by substitution of the GFP cassette with an eBFP fluorescent marker. 0.2×10^6 infected cells were injected into sublethally-irradiated 5-week old C57BL/6J recipient mice. Additional information is provided in the supplementary material and methods section.

Data set [7] deals with AML cell lines (KG1a, IMS-M2, and U937). As to the kind of experiment: AML cell line sensitivity to BET/CDK7 inhibitors in standard versus nutrient-deprived (folic acid-starved) media. In kind it is cell-based, human. As to conditions: folic acid withdrawal.
Description: BET proteins interact with acetylated histones in active regulatory domains (promoters and enhancers) and promote RNA PolII activity. Despite the general nature of this mechanism, BET inhibitors have shown selective effects on gene expression through suppression of […] and MYC-related transcriptional programs (8, 11, 12). Two cohorts of AML patients (TCGA-LAML, n=198 and GSE14468, n=526) were queried with multiple gene sets related to MYC transcriptional programs as well as vitamin, amino acid, and nucleotide metabolism using single sample Gene Set Enrichment Analysis (ssGSEA). Correlation between gene sets was queried across all patients from each cohort to pinpoint potential crosstalk between active MYC programs and specific metabolic pathways (data not shown).
as §2

For data set [8], the target named is CDK7 (Homo sapiens, UniProt P50613). The following applies: Table 1, Kwiatkowski et al. (2014); cited from earlier work.
CDK7, sequence (P50613 whole entry): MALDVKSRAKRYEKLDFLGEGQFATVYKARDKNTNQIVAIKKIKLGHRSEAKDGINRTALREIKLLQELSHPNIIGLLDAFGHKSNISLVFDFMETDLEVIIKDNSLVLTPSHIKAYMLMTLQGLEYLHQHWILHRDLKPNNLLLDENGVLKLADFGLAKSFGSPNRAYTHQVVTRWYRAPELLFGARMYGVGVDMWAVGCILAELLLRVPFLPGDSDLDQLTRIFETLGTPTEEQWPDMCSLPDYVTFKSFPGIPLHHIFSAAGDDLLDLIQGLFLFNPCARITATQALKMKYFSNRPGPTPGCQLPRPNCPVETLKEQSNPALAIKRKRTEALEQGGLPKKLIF
CDK7, sequence (P51946 whole entry partner): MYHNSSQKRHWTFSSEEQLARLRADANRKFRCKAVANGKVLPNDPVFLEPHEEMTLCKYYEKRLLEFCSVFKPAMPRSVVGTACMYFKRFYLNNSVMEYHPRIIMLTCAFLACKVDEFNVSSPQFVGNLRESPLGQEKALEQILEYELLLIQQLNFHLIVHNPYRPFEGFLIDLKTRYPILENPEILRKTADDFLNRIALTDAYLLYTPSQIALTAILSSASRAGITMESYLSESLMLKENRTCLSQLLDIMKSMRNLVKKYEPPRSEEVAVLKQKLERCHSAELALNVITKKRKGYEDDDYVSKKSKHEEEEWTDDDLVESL
The test system of data set [9] is KG1a, U937 and IMS-M2 cells. The data set is described as follows: OTX015 sensitivity with SAH supplementation. In kind it is cell-based, human. An excerpt: We next used metabolism profiling to characterize the effect of folate pathway alteration on global cell metabolism in U937 cells. […] ShRNA-mediated MTHFR depletion induced a similar increase in SAH levels as that observed upon folate withdrawal in AML cell lines U937 and IMS-M2 (data not shown).

For the molecule `CN1c2c(nc(N)[nH]c2=O)NCC1CNc1ccc(C(=O)N[C@@H](CCC(=O)O)C(=O)O)cc1` (stereo partly drawn) [5-CH3 THF, 5-methyltetrahydrofolate], in data set [1], the “effect on response to OTX015 (IC90, 5 days)” value is listed as “sensitized to OTX015”. For the same molecule, in [2], the “effect on response to OTX015 (fold change of IC50, 5 days)” value is listed as “substantially enhanced response to OTX015”. The “effect on cytotoxicity of OTX015 (fold change of IC50, 5 days)” value in data set [3] was “restored a cytotoxic effect of OTX015”.

`Cc1sc2c(c1C)C(c1ccc(Cl)cc1)=N[C@@H](CC(=O)OC(C)(C)C)c1nnc(C)n1-2` [JQ1, tert-butyl 2-[(9S)-7-(4-chlorophenyl)-4,5,13-trimethyl-3-thia-1,8,11,12-tetrazatricyclo[8.3.0.02,6]trideca-2(6),4,7,10,12-pentaen-9-yl]acetate]: the “effect of gene knockout on cells treated with JQ1” value is “rescued cells from JQ1” in [4] (knockout of EED, EIMT1 and SETDB1, 2 weeks); “enhanced cell sensitivity to JQ1” in data set [4] (knockout of KDMIA, JMJDIC and KDM3B). In addition, the “inhibition of BRD4” value in [5] is “potently inhibited”. Further, the leukemic burden entry in data set [6] (animals transplanted with Mthfr-depleted (shRNA) blasts, JQ1 treatment) is reported as “not significantly decreased”. In data set [6] (control shRNA counterparts), the “sensitivity of leukemic burden to JQ1” value is “striking sensitivity”. Moreover, the “sensitivity to JQ1 (GFP-positive MLL-AF9 leukemic cells in bone marrow)” value in data set [6] (loss of a single copy of Mthfr, 50 mg/kg JQ1 for 7 days) is given as “sufficient to attenuate sensitivity”. Further, the anti-leukemic activity result in data set [6] (mice fed no folate diet versus regular diet) was “markedly attenuated”. Also, the “overall survival after JQ1 treatment” value in data set [6] (mice injected with Mthfr-depleted cells versus control leukemic cells) is “significantly shorter”. Moreover, the “AML cell line sensitivity” value in data set [7] is reported as “significantly dampened”.

Regarding `CC(C)CC(=O)Nc1[nH]nc2c1CN(C(=O)C1CCN(C)CC1)C2(C)C` [PHA-793887], the “inhibitory activity toward CDK7 relative to other CDKs” value in [8] is on record as “lower inhibitory activity toward CDK7 than toward at least one other CDK”.

With `CC[C@H](CO)Nc1nc(NCc2ccccc2)c2ncn(C(C)C)c2n1` [Roscovitine], the “inhibitory activity toward CDK7 relative to other CDKs” value in data set [8] is “lower inhibitory activity toward CDK7 than toward at least one other CDK”.

Take `Nc1ncnc2c1ncn2[C@@H]1O[C@H](CSCC[C@H](N)C(=O)O)[C@@H](O)[C@H]1O` [SAH, S-adenosylhomocysteine]: the “cytoprotective effect of SAH against OTX015” value in data set [9] (methionine depleted 300-fold, IMS-M2 cells) is recorded as “enhanced the cytoprotective effect of SAH against OTX015”. For the same molecule, the “resistance to OTX015 with SAH” value in [9] (methionine depleted, U937 and KG1a cells) is reported as “even greater resistance to OTX015 than folate restriction alone”.

Take `CN(C)C/C=C/C(=O)Nc1ccc(C(=O)Nc2cccc(Nc3ncc(Cl)c(-c4c[nH]c5ccccc45)n3)c2)cc1` [THZ-1]: the “AML cell line sensitivity” value in data set [7] is “significantly dampened”.

With `CN1CC[C@H](c2c(O)cc(O)c3c(=O)cc(-c4ccccc4Cl)oc23)[C@H](O)C1` [flavopiridol], the “inhibitory activity toward CDK7 relative to other CDKs” value in data set [8] is “lower inhibitory activity toward CDK7 than toward at least one other CDK”.
